From patent US20240358861A1, “COMPOSITIONS AND METHODS OF FLUORESCEIN SODIUM FOR EARLY DIAGNOSIS OF CERVICAL CANCER” (THE MOEIN FAMILY TRUST, priority 2023, published 2024)
One block for each molecule: values may come before it.

Experiments:
cervix = assay: Staining properties of FNa versus AA when tested; set-up: species or system human; conditions: in vivo
From the text: In some embodiments, FNa staining may be observed with an unaided eye. Using FNa as a staining agent enables use in low resource settings where access to a colposcope is not possible.

[1] = system: cervix (cervical lesions); assay: Colposcopy with AA then FNa staining, histopathology (biopsy) as reference diagnosis; format: in vivo, human; conditions: for Accuracy: correlation of staining with biopsy report; for Sensitivity / Specificity: diagnosis of high grade SIL or worse per histopathology; for Number of patients, stain negative, Total / Number of patients, stain positive, Total: all biopsies
Experimental: The FNa formulation is applied in 3 steps, each using either a cotton swab or plastic pipette for delivery and continuing until all solution is dispensed: a) Pre-rinse with 10 mL of normal saline to remove cervical mucus. b) Apply 10 mL of a FNa delivery solution over the cervix. Solution in the posterior cul-de-sac is picked up with the pipette and resprayed, at least once, then discarded. c) after imaging or diagnosis, post-rinse with 10 mL of normal saline.

cervical lesions (CIN) = assay: Lesion grade stained, shown by p16, Ki67 and c-myc FISH staining of specimens; set-up: species or system human

Burning sensation (cervix): did not cause the same burning sensation
Structure (SMILES): O=C1OC2(c3ccc(O)cc3Oc3cc(O)ccc32)c2ccccc21 [FNa, Fluorescein (3′,6′-dihydrospiro[isobenzofuran-1(3H),9′-[9H]xanthene]-3-one) sodium]
Number of patients ([1]; No pap smear (n = 5), stain Negative, Benign biopsy n = 6): 0
Number of patients ([1]; No pap smear (n = 5), stain Negative, High grade biopsy (n = 26)): 0
Number of patients ([1]; No pap smear (n = 5), stain Negative, Invasive (n = 5)): 0
Number of patients ([1]; No pap smear (n = 5), stain Negative, Low grade Biopsy (n = 41)): 1
Number of patients ([1]; No pap smear (n = 5), stain Negative, all): 1
Number of patients ([1]; No pap smear (n = 5), stain Positive, Benign biopsy n = 6): 0
Number of patients ([1]; No pap smear (n = 5), stain Positive, High grade biopsy (n = 26)): 1
Number of patients ([1]; No pap smear (n = 5), stain Positive, Invasive (n = 5)): 0
Number of patients ([1]; No pap smear (n = 5), stain Positive, Low grade Biopsy (n = 41)): 3
Number of patients ([1]; No pap smear (n = 5), stain Positive, all): 4
Number of patients ([1]; Pap smear High grade (n = 22), stain Negative, Benign biopsy n = 6): 2
Number of patients ([1]; Pap smear High grade (n = 22), stain Negative, High grade biopsy (n = 26)): 0
Number of patients ([1]; Pap smear High grade (n = 22), stain Negative, Invasive (n = 5)): 0
Number of patients ([1]; Pap smear High grade (n = 22), stain Negative, Low grade Biopsy (n = 41)): 0
Number of patients ([1]; Pap smear High grade (n = 22), stain Negative, all): 2
Number of patients ([1]; Pap smear High grade (n = 22), stain Positive, Benign biopsy n = 6): 0
Number of patients ([1]; Pap smear High grade (n = 22), stain Positive, High grade biopsy (n = 26)): 12
Number of patients ([1]; Pap smear High grade (n = 22), stain Positive, Invasive (n = 5)): 3
Number of patients ([1]; Pap smear High grade (n = 22), stain Positive, Low grade Biopsy (n = 41)): 5
Number of patients ([1]; Pap smear High grade (n = 22), stain Positive, all): 20
Number of patients ([1]; Pap smear Invasive (n = 5), stain Negative, Benign biopsy n = 6): 0
Number of patients ([1]; Pap smear Invasive (n = 5), stain Negative, High grade biopsy (n = 26)): 0
Number of patients ([1]; Pap smear Invasive (n = 5), stain Negative, Invasive (n = 5)): 0
Number of patients ([1]; Pap smear Invasive (n = 5), stain Negative, Low grade Biopsy (n = 41)): 0
Number of patients ([1]; Pap smear Invasive (n = 5), stain Negative, all): 0
Number of patients ([1]; Pap smear Invasive (n = 5), stain Positive, Benign biopsy n = 6): 0
Number of patients ([1]; Pap smear Invasive (n = 5), stain Positive, High grade biopsy (n = 26)): 4
Number of patients ([1]; Pap smear Invasive (n = 5), stain Positive, Invasive (n = 5)): 1
Number of patients ([1]; Pap smear Invasive (n = 5), stain Positive, Low grade Biopsy (n = 41)): 0
Number of patients ([1]; Pap smear Invasive (n = 5), stain Positive, all): 5
Number of patients ([1]; Pap smear Low grade (n = 46), stain Negative, Benign biopsy n = 6): 4
Number of patients ([1]; Pap smear Low grade (n = 46), stain Negative, High grade biopsy (n = 26)): 0
Number of patients ([1]; Pap smear Low grade (n = 46), stain Negative, Invasive (n = 5)): 0
Number of patients ([1]; Pap smear Low grade (n = 46), stain Negative, Low grade Biopsy (n = 41)): 3
Number of patients ([1]; Pap smear Low grade (n = 46), stain Negative, all): 7
Number of patients ([1]; Pap smear Low grade (n = 46), stain Positive, Benign biopsy n = 6): 0
Number of patients ([1]; Pap smear Low grade (n = 46), stain Positive, High grade biopsy (n = 26)): 9
Number of patients ([1]; Pap smear Low grade (n = 46), stain Positive, Invasive (n = 5)): 1
Number of patients ([1]; Pap smear Low grade (n = 46), stain Positive, Low grade Biopsy (n = 41)): 29
Number of patients ([1]; Pap smear Low grade (n = 46), stain Positive, all): 39
Accuracy [1]: Accuracy = 94%
Sensitivity [1]: 94%
Specificity [1]: 86%
Number of patients, stain negative, Total [1]: 10
Number of patients, stain negative, biopsy Ca, HG, LG [1]: 4
Number of patients, stain positive, Total [1]: 68
Number of patients, stain positive, biopsy Ca, HG, LG [1]: 67

Burning sensation (cervix): burning sensation that AA causes
Structure (SMILES): CC(=O)O [AA, acetic acid]
Lesion grades stained (cervical lesions (CIN)): stains any lesion from CIN 1 and worse
More false positives than the other stain ([1]; AA versus FNa, patients with low grade SIL per histopathology): three
Number of patients Acetic acid positive ([1]; No pap smear (n = 5)): 5
Number of patients Acetic acid positive ([1]; Pap smear High grade (n = 22)): 20
Number of patients Acetic acid positive ([1]; Pap smear Invasive (n = 5)): 5
Number of patients Acetic acid positive ([1]; Pap smear Low grade (n = 46)): 44
Accuracy [1]: Accuracy = 94%
Sensitivity [1]: 94%
Specificity [1]: 43%
Missed high grade lesions ([1]; in vivo): Neither AA nor FNa missed any high grade lesions
Number of patients, stain negative, Total [1]: 4
Number of patients, stain negative, biopsy Ca, HG, LG [1]: 1
Number of patients, stain positive, Total [1]: 74
Number of patients, stain positive, biopsy Ca, HG, LG [1]: 70
